Source: patent US20130096050A1 (Longevity Biotech, Inc., priority 2010, published 2013)
Entries after “also recorded” stand apart in the source; their conditions may differ.

Tests used:
amylin receptor = settings: read-out: IC50, amylin receptor antagonist; cited from earlier work
CGRP receptors = CGRP receptors (Homo sapiens, UniProt O60894+Q16602); settings: amylin receptor vs CGRP receptors; cited from earlier work
calcitonin receptors = settings: amylin receptor vs calcitonin receptors; cited from earlier work
[1] = humans; cited from earlier work
VIPR1 (VPAC1) = target: T1, VIPR1 (VPAC1) (Homo sapiens, UniProt P32241); experiment: cAMP Hunter cell line functional assay, agonist mode (DiscoveRx HitHunter cAMP XS+); type: cell-based; settings: for Mean RLU: cAMP, VIPR1 cells
T1 sequence (P32241 31-457): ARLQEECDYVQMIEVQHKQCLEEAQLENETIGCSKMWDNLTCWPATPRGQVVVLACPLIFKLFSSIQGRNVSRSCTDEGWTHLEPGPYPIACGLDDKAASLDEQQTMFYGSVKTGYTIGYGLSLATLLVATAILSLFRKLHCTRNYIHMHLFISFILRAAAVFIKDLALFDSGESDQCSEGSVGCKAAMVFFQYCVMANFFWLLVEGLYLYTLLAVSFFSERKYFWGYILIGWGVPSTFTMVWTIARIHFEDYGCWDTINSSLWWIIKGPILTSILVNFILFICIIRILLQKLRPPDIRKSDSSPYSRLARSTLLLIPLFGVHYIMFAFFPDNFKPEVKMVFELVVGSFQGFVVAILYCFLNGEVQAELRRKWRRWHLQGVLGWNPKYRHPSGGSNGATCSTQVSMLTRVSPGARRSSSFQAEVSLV
Procedure: (§1) Once it was established that the cells were healthy and growing normally, cells were passaged from flasks using cell dissociation reagent buffer and seeded into white walled clear bottom 384-well microplates for compound profiling. For profiling, cells were seeded at a density of 10,000 cells per well in a total volume of 20 μL and were allowed to adhere and recover overnight prior to compound addition. cAMP modulation was determined using the DiscoveRx HitHunter cAMP XS+ assay.
(§2) For profiling compound in agonist mode, the cells were incubated in the presence of compound at 37° C. for 30 minutes. […] After appropriate compound incubation, assay signal was generated through incubation with DiscoverX lysis cocktail according to the manufacturers standard protocol. Dose curves were plotted using GraphPad Prism or Activity Base. Percentage activity is calculated using the following formula:
(§3) % Activity=100%×(mean RLU of test sample−mean RLU of vehicle control)/(mean RLU of MAX control−mean RLU of vehicle control).

VIPR2 (VPAC2) = target: T2, VIPR2 (VPAC2) (Homo sapiens, UniProt P41587); experiment: as above; type: cell-based; settings: FIG. 3
T2 construct: host or cells: cAMP Hunter cell line (CHO-K1 is named only in the prophetic b955)
T2 sequence (P41587 24-438): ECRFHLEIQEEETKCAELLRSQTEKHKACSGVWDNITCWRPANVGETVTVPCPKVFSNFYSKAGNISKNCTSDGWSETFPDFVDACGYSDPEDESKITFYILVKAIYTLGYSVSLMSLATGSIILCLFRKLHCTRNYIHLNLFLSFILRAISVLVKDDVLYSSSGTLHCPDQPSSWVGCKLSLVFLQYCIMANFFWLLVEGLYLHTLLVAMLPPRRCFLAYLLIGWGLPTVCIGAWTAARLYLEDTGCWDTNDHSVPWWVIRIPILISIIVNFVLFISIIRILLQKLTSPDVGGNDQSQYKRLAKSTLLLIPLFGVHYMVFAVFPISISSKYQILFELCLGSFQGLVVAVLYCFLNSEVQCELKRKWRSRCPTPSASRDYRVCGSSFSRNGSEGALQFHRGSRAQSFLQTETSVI
Procedure: as §1, §2, §3

neurotensin receptors = settings: rat brain receptors; read-out: IC50, inhibition of {Trp11}-NT binding; cited from earlier work

Sequence of CGRP receptors (Q16602 23-461): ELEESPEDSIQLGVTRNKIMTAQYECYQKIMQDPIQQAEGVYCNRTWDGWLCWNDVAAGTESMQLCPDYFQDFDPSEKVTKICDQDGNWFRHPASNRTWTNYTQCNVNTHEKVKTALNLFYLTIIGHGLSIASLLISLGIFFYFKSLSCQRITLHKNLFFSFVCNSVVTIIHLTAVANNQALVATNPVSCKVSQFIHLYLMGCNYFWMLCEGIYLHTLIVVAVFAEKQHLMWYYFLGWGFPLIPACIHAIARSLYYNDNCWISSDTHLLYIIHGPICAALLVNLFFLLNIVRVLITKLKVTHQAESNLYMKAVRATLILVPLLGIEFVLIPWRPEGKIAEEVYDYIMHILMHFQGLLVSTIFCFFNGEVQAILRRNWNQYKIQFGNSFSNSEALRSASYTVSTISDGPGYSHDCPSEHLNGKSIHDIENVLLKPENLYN
Sequence of CGRP receptors (O60894 27-148 partner): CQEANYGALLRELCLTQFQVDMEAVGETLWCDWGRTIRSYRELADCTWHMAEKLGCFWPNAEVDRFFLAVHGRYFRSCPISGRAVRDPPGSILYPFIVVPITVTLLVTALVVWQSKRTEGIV

Question: What does the source list for AC 187?
Answer: IC50 (amylin receptor): 0.48 nM; selectivity over CGRP receptors (CGRP receptors): 400 fold; selectivity over calcitonin receptors (calcitonin receptors): 38 fold

Question: With “GLP-1: glucagon-like peptide-1, a product of the proglucagon gene, gut hormone (HDEFERHAEGTFTSDVSSYLEGQAAQGFIAWLVKGRG)” as the substance, how does the plasma half-life [1] read?
Answer: 2 min

Question: For “HSDAVFTDNYXRLZKQLXVKZYLNX ILN [Compound 8]”, which “Mean RLU” value (VIPR1 (VPAC1); 1.03E−08 M) is on record?
Answer: 13700.0 RLU

Question: And the “Mean RLU” value (VIPR1 (VPAC1); 1.03E−09 M)?
Answer: 13500.0 RLU

Question: And the “Mean RLU” value (VIPR1 (VPAC1); 1.03E−10 M)?
Answer: 9960.0 RLU

Question: What about the “Mean RLU” value (VIPR1 (VPAC1); 1.03E−11 M) of the same substance?
Answer: 10500.0 RLU

Question: And the “Mean RLU” value (VIPR1 (VPAC1); 1.03E−12 M)?
Answer: 10340.0 RLU

Question: And the “Mean RLU” value (VIPR1 (VPAC1); 5.03E−07 M)?
Answer: 112320.0 RLU

Question: And the “Mean RLU” value (VIPR1 (VPAC1); 5.03E−08 M)?
Answer: 96460.0 RLU

Question: What about the “Mean RLU” value (VIPR1 (VPAC1); 5.03E−09 M) of the same substance?
Answer: 13200.0 RLU

Question: And the “Mean RLU” value (VIPR1 (VPAC1); 5.03E−10 M)?
Answer: 9520.0 RLU

Question: What about the “activation of VIPR1 (in words)” value (VIPR1 (VPAC1); FIG. 3) of the same substance?
Answer: fully activate

Question: And the EC50 (VIPR1 (VPAC1); cAMP readout, 37° C. for 30 minutes, read-out: EC50 (peptide concentration for 50% VIPR1 activation))?
Answer: 28 nM

Question: And the “activation of / interaction with VIPR2 (in words)” value (VIPR2 (VPAC2))?
Answer: not activate; also recorded: does not interact substantially

Question: With Neuromedin N as the substance, how does the IC50 (neurotensin receptors) read?
Answer: 16.7 nM
